Measured values from patent US20080070971A1, “Medical Use of Bilirubin and its Structural Analogues” (priority 2006, published 2008).

Tests used:
[1] = tested on: Pancreas phospholipase A2 (PLA2); assay: Phospholipase A2 FlashPlate inhibition assay; format: biochemical; conditions: bilirubin concentration of about 10 mg/L; pH=7.2 (FIG. 1)
Protocol: Pancreas phospholipase A2 (PLA2) (SigmaAldrich Cat.# P223), acetylcholinesterase (SigmaAldrich cat.# C0663), acetyleholine chloride (Cat.# A6625), and bilirubin (SigmaAldrich #B4126) were purchased from SigmaAldrich. Bilirubin solution was prepared freshly by dissolving it in dimethyl sulfoxide (DMSO) and further dilutions were made in Tris-HCl buffer (pH 7.4). The sPLA2 activity was determined by the FlashPlate assay procedure described by Do and Kasila (American Biotechnology Laboratory, June 2001, P 51-52). Briefly, phospholipid flash plates (PerkinElmer Life Sciences, cat. #SMP108) were coated with 0.2 mL/well of the substrate of 1-steroyl 2-arachidonyl phosphatidylcholine (PerkinElmer Life Sciences, cat. #NE872). The plate was covered and incubated overnight at room temperature. After the incubation, the wells were aspirated prior to use in the PLA2 assay. The substrate assay buffer contained 50 mM tris-HCl (pH=7.3), 0.2 M NaCl, 0.1 mM CaCl2, 0.1 mM EDTA, 0.02% deoxycholate, 10-50 units/mL PLA2, and final volume 200 μL/well. The bound radioactivity was determined by counting the FlashPlate.

acetylcholinesterase = target: T1, acetylcholinesterase (Homo sapiens, UniProt P22303); assay: Acetylcholinesterase activity by choline release; format: biochemical; conditions: at high bilirubin concentrations (FIG. 2)
T1 construct: purchased SigmaAldrich C0663
T1 sequence (P22303 32-617 isoform P22303-2 limits assumed): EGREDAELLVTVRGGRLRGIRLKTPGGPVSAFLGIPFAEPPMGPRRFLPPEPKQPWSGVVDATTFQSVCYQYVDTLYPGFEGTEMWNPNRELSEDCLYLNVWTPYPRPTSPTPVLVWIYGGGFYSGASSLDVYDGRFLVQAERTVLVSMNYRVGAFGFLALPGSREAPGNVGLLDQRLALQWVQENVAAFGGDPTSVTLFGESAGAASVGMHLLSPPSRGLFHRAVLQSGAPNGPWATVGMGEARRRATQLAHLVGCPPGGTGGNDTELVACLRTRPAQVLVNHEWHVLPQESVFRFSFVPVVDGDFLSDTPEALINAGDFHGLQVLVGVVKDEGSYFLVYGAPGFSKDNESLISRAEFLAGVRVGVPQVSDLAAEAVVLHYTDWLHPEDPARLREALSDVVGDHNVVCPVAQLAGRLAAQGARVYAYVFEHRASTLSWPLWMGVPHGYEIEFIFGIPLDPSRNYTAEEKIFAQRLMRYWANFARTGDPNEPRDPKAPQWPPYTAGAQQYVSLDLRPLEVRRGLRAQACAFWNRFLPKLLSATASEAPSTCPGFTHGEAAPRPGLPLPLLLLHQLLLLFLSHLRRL
Protocol: Since bilirubin itself gives an absorption peak at 460 nm, which interferes with the cholinesterase assay procedures in many standard assay kits, a modified method was developed. The acetylcholinesterase activity was determined by measuring the quantity of choline release from acetylcholine:
Briefly, after 30 minutes reaction in the above acetylcholine-enzyme solution at pH=7.8, in the absence or presence of bilirubin, the reaction was stopped by heating to about 100° C. in boiling water. The solution was then cooled down to 37° C. Residual bilirubin was neutralized by titrating with H2O2. The amount of choline was then determined by the following choline oxidase assay method provided by SigmaAldrich (Cat.# C5896): […]

[2] = Oral bilirubin supplementation, blood chemistry; format: in vivo
Protocol: 2-6 bilirubin pills (10 mg/capsule)were ingested daily as a dietary supplement over time period from 3-12 months. Blood samples were taken by medical professionals and blood chemistry, including serum bilirubin level, total cholesterol, triglyceride, LDL-cholesterol, and HDL cholesterol were analyzed by independent medical testing laboratories.

[3] = target: T2, isocitrate dehydrogenase (ICDH) (Sus scrofa, UniProt P33198); assay: Isocitrate dehydrogenase inhibition; format: biochemical; conditions: concentration equivalent to the moderate level of serum bilirubin (FIG. 7)
T2 construct: purchased SigmaAldrich I2516
T2 sequence (P33198 9-421): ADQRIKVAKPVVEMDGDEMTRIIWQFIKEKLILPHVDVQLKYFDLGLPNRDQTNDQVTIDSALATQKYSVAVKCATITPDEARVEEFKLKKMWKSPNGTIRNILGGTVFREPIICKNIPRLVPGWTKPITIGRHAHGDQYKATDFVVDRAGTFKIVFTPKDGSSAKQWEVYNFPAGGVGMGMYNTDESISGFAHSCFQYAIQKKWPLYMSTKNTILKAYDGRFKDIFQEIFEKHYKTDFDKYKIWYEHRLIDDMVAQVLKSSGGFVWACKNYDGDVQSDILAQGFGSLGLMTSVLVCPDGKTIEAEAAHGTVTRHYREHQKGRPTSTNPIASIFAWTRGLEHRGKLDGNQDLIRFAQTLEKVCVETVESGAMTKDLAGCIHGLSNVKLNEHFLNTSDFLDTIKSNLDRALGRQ
Protocol: NAD (Cat.#N1511), NADH (Cat. N9410), NADP (Cat.#N8610) and NADPG (Cat. #N7505), HMG-CoA (Cat.#H6132) were purchased from Sigma Aldrich (St. Louis, Mo.). NADP-linked isocitrate dehydrogenase was also obtained from SigmaAldrich (Cat.#I2516). Other liver enzymes were prepared as follows.

cyclooxygenase (COX) = assay: Cyclooxygenase (COX) inhibition; format: biochemical, human
Protocol: The activity of COX was determined by the procedure described in Assay Design's Enzyme Immunometric Assay (EIA) kit (Assay Design Inc., TiterZyme EIA cat.#900-094). Briefly, the kit uses a monoclonal antibody to human COX-II immobilized on a microtiter plate to bind the human COX in the standard or sample. After a short incubation the excess standard or sample is washed out and a rabbit polyclonal antibody to human COX labeled with the enzyme. Horseradish peroxidase is added. This labeled antibody binds to the human COX captured on the plate. After a short incubation the excess labeled antibody is washed out and substrate is added. The substrate reacts with the labeled antibody bound to the human COX captured on the plate. After a short incubation, the enzyme reaction is stopped and the color generated is read at 450 nm. The measured optical density is directly proportional to the concentration of human COX.
Purified cyclooxygenases (COX) were obtained from Kayman Chemical Company and used to examine the inhibitory effect of bilirubin with arachidonic acid as the substrate. High purity of bilirubin (SigmaAldrich #B4126), biliverdin (Frontier Scientific Inc., Cat. B655-9) and hemin (SigmaAldrich, #51280) were used as received.

[4] = tested on: histone deacetylase (HDAC), HeLa cell lysate; assay: Histone deacetylase (HDAC) assay; format: biochemical
Protocol: Assay of histone decaetylase (HDAC). The activity of HDAC was measured according to the procedure provided by SigmaAldrich (Histone Deacetylase Assay Kit, Cat.# CS1010). HeLa cel lysate provided by the assay kit was used as a source for HDAC activity in the inhibition testing.

[5] = tested on: liver cholesterol esterase; assay: Cholesterol esterification by liver cholesterol esterase; format: biochemical
[6] = 2-6 pills (10 mg/capsule) daily, 3-12 months
[7] = at higher serum bilirubin level (FIG. 12)

For `C=CC1=C(C)C(=Cc2[nH]c(Cc3[nH]c(C=C4NC(=O)C(C)=C4C=C)c(C)c3CCC(=O)O)c(CCC(=O)O)c2C)NC1=O` [bilirubin, 2,7,13,17-tetramethyl-1,19-dioxo-3,18-divinyl-1,10,19,22,23,24-hexahydro-21H-biline-8,12-dipropanoic acid], the “inhibition of the PLA2 activity” value [1] was “about 80%”, the acetylcholinesterase activity (acetylcholinesterase) was “completely eliminated” and the total cholesterol concentration [2, 6] was “varied inversely”. The “total serum bilirubin level” value [2, 6] was “effectively increased”, the LDL-cholesterol level [2, 7] was “lower” and the triglycerol level [2, 7] was “lower”. For the same molecule, the fecal fat content ([2]; bilirubin treatment) was “substantially increased”, the “inhibition of isocitrate dehydrogenase” value [3] was “strongly suppressed” and the “inhibition of the COX activity” value (cyclooxygenase (COX); 10 mg/L bilirubin (FIG. 3)) was “Up to 70%”. For the same molecule, the “reducing COX activity (comparison)” value (cyclooxygenase (COX); concentration of 10 mg/L (FIG. 4)) was “effective in reducing COX activity”, the “50% inhibition concentration (IC50)” value ([4]; substrate concentration 5 μM) was 16.5 µg/mL and the “50% inhibition concentration (IC50)” value ([4]; substrate concentration 50 μM) was 40 µg/mL. For the same molecule, the “inhibition of cholesterol esterification by liver cholesterol esterase” value [5] was “inhibits”.
